Results published in US20160257651A1, “NOVEL COMPOUND WITH ANTIBACTERIAL ACTIVITY” (priority 2013, published 2016).
In brackets after ≈: the same amount, converted by molar mass.

System: S. aureus FDA209P (ATCC 6538P)
Test: microbe, parasite or virus in culture
Assay type: cell-based, Staphylococcus aureus
Conditions: Staphylococcus aureus, ATCC 6538P / FDA209P / MSSA, quinolone-susceptible MSSA, ParC 80S, GyrA 84S, read-out: MIC
Description: (§1) Then, the cell suspension was diluted 500 times with CAMHB mentioned above.

Row | Compound | MIC [µg/mL]
1 | C[C@H]1COc2c(N3CCN(C)CC3)c(F)cc3c(=O)c(C(=O)O)cn1c23 [LVX, levofloxacin] | ≤ 0.06
2 | C[C@@H]1CN(c2c(F)c(N)c3c(=O)c(C(=O)O)cn(C4CC4)c3c2F)C[C@H](C)N1 [SPX, sparfloxacin] | ≤ 0.06

System: S. aureus Mu50
Test: microbe, parasite or virus in culture
Assay type: cell-based, Staphylococcus aureus
Conditions: MIC for S. aureus Mu50 / MIC for S. aureus FDA209P
Description: as §1

Row | Compound | MIC ratio (Mu50 MIC/FDA209P MIC)
3 | C[C@H]1COc2c(N3CCN(C)CC3)c(F)cc3c(=O)c(C(=O)O)cn1c23 [LVX, levofloxacin] | ≧128
4 | C[C@@H]1CN(c2c(F)c(N)c3c(=O)c(C(=O)O)cn(C4CC4)c3c2F)C[C@H](C)N1 [SPX, sparfloxacin] | ≧256

Same assay, conditions: S. aureus Mu50, quinolone-resistant MRSA; ParC S80F, GyrA S84L

Row | Compound | MIC [µg/mL]
5 | C[C@H]1COc2c(N3CCN(C)CC3)c(F)cc3c(=O)c(C(=O)O)cn1c23 [LVX, levofloxacin] | 8 (≈ 22.1 µM)
6 | C[C@@H]1CN(c2c(F)c(N)c3c(=O)c(C(=O)O)cn(C4CC4)c3c2F)C[C@H](C)N1 [SPX, sparfloxacin] | 16 (≈ 40.8 µM)

Same assay, conditions: Staphylococcus aureus, MRSA, S. aureus Mu50, quinolone-resistant MRSA; ParC S80F, GyrA S84L

Row | Compound | MIC [µg/mL]
7 | C[C@H]1COc2c(N3CCN(C)CC3)c(F)cc3c(=O)c(C(=O)O)cn1c23 [LVX, levofloxacin] | 8 to 128 (≈ 22.1 to 354 µM)
8 | C[C@@H]1CN(c2c(F)c(N)c3c(=O)c(C(=O)O)cn(C4CC4)c3c2F)C[C@H](C)N1 [SPX, sparfloxacin] | 8 to 128 (≈ 20.4 to 326 µM)

System: S. aureus Mu50 NR1-1
Test: microbe, parasite or virus in culture
Assay type: cell-based
Conditions: Staphylococcus aureus, MU50NR11
Description: as §1

Row | Compound | MIC [µg/mL]
9 | C[C@H]1COc2c(N3CCN(C)CC3)c(F)cc3c(=O)c(C(=O)O)cn1c23 [LVX, levofloxacin] | 1 (≈ 2.77 µM)
10 | C[C@@H]1CN(c2c(F)c(N)c3c(=O)c(C(=O)O)cn(C4CC4)c3c2F)C[C@H](C)N1 [SPX, sparfloxacin] | 0.25 (≈ 0.637 µM)

System: S. aureus MR5867 one-step mutant
Test: MIC against stepwise QRDR mutants
Assay type: cell-based
Conditions: Staphylococcus aureus
Description: (§2) The strains used for this test example are available from the inventors of the present invention.
as §1

Row | Compound | MIC [µg/mL]
11 | C[C@H]1COc2c(N3CCN(C)CC3)c(F)cc3c(=O)c(C(=O)O)cn1c23 [LVX, levofloxacin] | 1 (≈ 2.77 µM)
12 | C[C@@H]1CN(c2c(F)c(N)c3c(=O)c(C(=O)O)cn(C4CC4)c3c2F)C[C@H](C)N1 [SPX, sparfloxacin] | < 0.06

System: S. aureus MS5952 one-step mutant
Test: MIC against stepwise QRDR mutants
Assay type: cell-based
Conditions: Staphylococcus aureus
Description: as §2, §1

Row | Compound | MIC [µg/mL]
13 | C[C@H]1COc2c(N3CCN(C)CC3)c(F)cc3c(=O)c(C(=O)O)cn1c23 [LVX, levofloxacin] | 0.5 (≈ 1.38 µM)
14 | C[C@@H]1CN(c2c(F)c(N)c3c(=O)c(C(=O)O)cn(C4CC4)c3c2F)C[C@H](C)N1 [SPX, sparfloxacin] | 8 (≈ 20.4 µM)

System: Staphylococcus aureus VRS5 (VRSA)
Test: MIC, S. aureus categories (Test Example 3)
Assay type: cell-based
Conditions: not given
Description: The antibacterial activities of the compound J-131CP against Staphylococcus aureus strains belonging to the five categories of Staphylococcus aureus, i.e., MSSA, MRSA, community-acquired-infection type MRSA (CA-MRSA), VISA, and VRSA, were investigated.
(§3) The compound J-131CP and quinolones were prepared in the same manner as that of Test Example 1-1.
Cell suspensions were prepared in the same manner as that of Test Example 1-1 described in the section of measurement of MIC in Test Example 1-1, except that the strains mentioned in Table 6 were used as Staphylococcus aureus, and MICs of the compound J-131CP and quinolones as the control were determined for the strains in the same manner as that of Test Example 1-1. In Table 6, the amino acid substitution mutations in QRDR of the strains are underlined.

Row | Compound | MIC [µg/mL]
15 | C[C@H]1COc2c(N3CCN(C)CC3)c(F)cc3c(=O)c(C(=O)O)cn1c23 [LVX, levofloxacin] | > 128
16 | C[C@@H]1CN(c2c(F)c(N)c3c(=O)c(C(=O)O)cn(C4CC4)c3c2F)C[C@H](C)N1 [SPX, sparfloxacin] | 128 (≈ 326 µM)

System: E. faecalis 36-15747
Test: MIC against Enterococcus bacteria
Assay type: cell-based
Conditions: 3615747, ParC 80Ile
Description: (§4) Antibacterial activities of the compound J-131CP against Enterococcus bacteria (Enterococcus faecium and Enterococcus faecalis) were examined by the following methods.
as §3
(§5) Cell suspensions were prepared in the same manner as that of Test Example 1-1 described in the section of measurement of MIC in Test Example 1-1, except that the Enterococcus bacterium strains mentioned in Table 8 were used instead of Staphylococcus aureus, and MICs of the compound J-131CP and quinolones as control were determined for the strains in the same manner as that of Test Example 1-1 described in the section of measurement of MIC in Test Example 1-1. In Table 8, the amino acid substitution mutations in QRDR of the strains are underlined.

Row | Compound | MIC [µg/mL]
17 | C[C@H]1COc2c(N3CCN(C)CC3)c(F)cc3c(=O)c(C(=O)O)cn1c23 [LVX, levofloxacin] | 2 (≈ 5.53 µM)
18 | C[C@@H]1CN(c2c(F)c(N)c3c(=O)c(C(=O)O)cn(C4CC4)c3c2F)C[C@H](C)N1 [SPX, sparfloxacin] | 0.5 (≈ 1.27 µM)

System: E. faecalis NCTC12201
Test: MIC against Enterococcus bacteria
Assay type: cell-based
Conditions: Enterococcus faecalis, NCTC 12201 / VRE, quinolone-susceptible, read-out: MIC
Description: as §4, §3, §5

Row | Compound | MIC [µg/mL]
19 | C[C@H]1COc2c(N3CCN(C)CC3)c(F)cc3c(=O)c(C(=O)O)cn1c23 [LVX, levofloxacin] | 1 (≈ 2.77 µM)
20 | C[C@@H]1CN(c2c(F)c(N)c3c(=O)c(C(=O)O)cn(C4CC4)c3c2F)C[C@H](C)N1 [SPX, sparfloxacin] | 0.5 (≈ 1.27 µM)

System: E. faecalis NCTC12203
Test: MIC against Enterococcus bacteria
Assay type: cell-based
Conditions: NCTC 12203 / VRE, E. faecalis NCTC12203, VRE, read-out: MIC
Description: as §4, §3, §5

Row | Compound | MIC [µg/mL]
21 | C[C@H]1COc2c(N3CCN(C)CC3)c(F)cc3c(=O)c(C(=O)O)cn1c23 [LVX, levofloxacin] | 2 (≈ 5.53 µM)
22 | C[C@@H]1CN(c2c(F)c(N)c3c(=O)c(C(=O)O)cn(C4CC4)c3c2F)C[C@H](C)N1 [SPX, sparfloxacin] | 1 (≈ 2.55 µM)

System: E. faecium NCTC12204
Test: MIC against Enterococcus bacteria
Assay type: cell-based
Conditions: NCTC 12204 / VRE, E. faecium NCTC12204, VRE, read-out: MIC
Description: as §4, §3, §5

Row | Compound | MIC [µg/mL]
23 | C[C@H]1COc2c(N3CCN(C)CC3)c(F)cc3c(=O)c(C(=O)O)cn1c23 [LVX, levofloxacin] | 2 (≈ 5.53 µM)
24 | C[C@@H]1CN(c2c(F)c(N)c3c(=O)c(C(=O)O)cn(C4CC4)c3c2F)C[C@H](C)N1 [SPX, sparfloxacin] | 1 (≈ 2.55 µM)

System: E. faecium RPR10
Test: MIC against Enterococcus bacteria
Assay type: cell-based
Conditions: E. faecium RPR10, read-out: MIC
Description: as §4, §3, §5

Row | Compound | MIC [µg/mL]
25 | C[C@H]1COc2c(N3CCN(C)CC3)c(F)cc3c(=O)c(C(=O)O)cn1c23 [LVX, levofloxacin] | 1 (≈ 2.77 µM)
26 | C[C@@H]1CN(c2c(F)c(N)c3c(=O)c(C(=O)O)cn(C4CC4)c3c2F)C[C@H](C)N1 [SPX, sparfloxacin] | 0.13 (≈ 0.331 µM)

System: E. faecalis 36-15722
Test: MIC against Enterococcus bacteria
Assay type: cell-based, Enterococcus faecalis
Conditions: Enterococcus faecalis, 3615722; E. faecalis 36-15722, quinolone-resistant; ParC 80Ile, GyrA 84Ile; read-out: MIC
Description: as §4, §3, §5

Row | Compound | MIC [µg/mL]
27 | C[C@H]1COc2c(N3CCN(C)CC3)c(F)cc3c(=O)c(C(=O)O)cn1c23 [LVX, levofloxacin] | 36 (≈ 99.6 µM)
28 | C[C@@H]1CN(c2c(F)c(N)c3c(=O)c(C(=O)O)cn(C4CC4)c3c2F)C[C@H](C)N1 [SPX, sparfloxacin] | 64 (≈ 163 µM)

System: S. pneumoniae BCLSP16
Test: MIC against pneumococcus, CAMHB with 5 mass % LHB
Assay type: cell-based
Conditions: Streptococcus pneumoniae, BCLSP16
Source text: (§6) Antibacterial activity of the compound J-131CP against pneumococcus (Streptococcus pneumoniae) was examined by the following method. The S. pneumoniae strains used for this test belong to any one of the categories of penicillin-susceptible pneumococcus (penicillin-susceptible Streptococcus pneumoniae, PSSP), penicillin-intermediate pneumococcus (penicillin-intermediate Streptococcus pneumoniae, PISP), and penicillin-resistant pneumococcus (penicillin-resistant Streptococcus pneumoniae, PRSP).
(§7) The compound J-131CP and quinolones were prepared in the same manner as that of Test Example 1-1, except that CAMHB containing 5 mass % of lysed horse blood (LHB) was used for the dilution instead of CAMHB. The lysed horse blood was prepared by adding sterilized water to horse sterile defibered blood (produced by Nippon Bio-Supp. Center) at a ratio of 1:1, subjecting the mixture to freezing and thawing 5 times, then centrifuging the mixture twice at 10,000 rpm for 20 minutes, and filtering the supernatant through a filter.
(§8) The S. pneumoniae strains mentioned in Table 11 were each cultured overnight at 37° C. on a blood agar medium as stationary culture. The blood agar medium was prepared by adding 5 mass % ovine sterile defibered blood (produced by Nippon Bio-Supp. Center) to a heart infusion agar medium (produced by EIKEN CHEMICAL). Each S. pneumoniae strain cultured overnight at 37° C. as stationary culture was further subcultured overnight at 37° C. on fresh blood agar medium as stationary culture. After completion of the culture, cells of each pneumococcus strain were collected with a swab, and suspended in physiological saline, and the suspension was adjusted with physiological saline to show absorbance of 0.08 to 0.13 at 625 nm as measured with an absorbance meter (produced by Amersham), and further diluted 200 times with CAMHB containing 5 mass % LHB.
(§9) CAMHB containing the compound J-131CP at each concentration or each quinolone at each concentration, and 5 mass % LHB was added to each well of a 96-well plate in a volume of 50 μL/well, each cell suspension diluted 200 times was added to the well in a volume of 50 μL/well, and stationary culture was carried out overnight at 37° C.
(§10) After completion of the culture, whether the bacterium proliferated or not was determined on the basis of visually observed turbidity of the culture in the well, and MIC values (mg/L) of the compound J-131CP and the quinolones for the strains were determined. In Table 11, the amino acid substitution mutations in QRDR of the strains are underlined.

Row | Compound | MIC [µg/mL]
29 | C[C@H]1COc2c(N3CCN(C)CC3)c(F)cc3c(=O)c(C(=O)O)cn1c23 [LVX, levofloxacin] | 32 (≈ 88.6 µM)
30 | C[C@@H]1CN(c2c(F)c(N)c3c(=O)c(C(=O)O)cn(C4CC4)c3c2F)C[C@H](C)N1 [SPX, sparfloxacin] | 16 (≈ 40.8 µM)

System: S. pneumoniae JHSP11
Test: MIC against pneumococcus, CAMHB with 5 mass % LHB
Assay type: cell-based
Conditions: Streptococcus pneumoniae
Source text: as §6, §7, §8, §9, §10

Row | Compound | MIC [µg/mL]
31 | C[C@H]1COc2c(N3CCN(C)CC3)c(F)cc3c(=O)c(C(=O)O)cn1c23 [LVX, levofloxacin] | 64 (≈ 177 µM)
32 | C[C@@H]1CN(c2c(F)c(N)c3c(=O)c(C(=O)O)cn(C4CC4)c3c2F)C[C@H](C)N1 [SPX, sparfloxacin] | > 32

System: S. pneumoniae KBSP04
Test: MIC against pneumococcus, CAMHB with 5 mass % LHB
Assay type: cell-based
Conditions: Streptococcus pneumoniae, KBSP04
Source text: as §6, §7, §8, §9, §10

Row | Compound | MIC [µg/mL]
33 | C[C@@H]1CN(c2c(F)c(N)c3c(=O)c(C(=O)O)cn(C4CC4)c3c2F)C[C@H](C)N1 [SPX, sparfloxacin] | 0.125 (≈ 0.319 µM)

Same assay, conditions: Streptococcus pneumoniae; S. pneumoniae KBSP04, PISP; read-out: MIC

Row | Compound | MIC [µg/mL]
34 | C[C@H]1COc2c(N3CCN(C)CC3)c(F)cc3c(=O)c(C(=O)O)cn1c23 [LVX, levofloxacin] | 2 (≈ 5.53 µM)
